The text below walks through data of patent US8609649B2, “Compositions and methods for the diagnosis, treatment, and prevention of amyotrophic lateral sclerosis and related neurological diseases” (Brandeis University, priority 2007, dated 2013).

The subject of data set [1] is humans with systolic hypertension and moderately severe diastolic heart failure. As to conditions: 16 weeks, 23 humans; cited from earlier work.
For data set [2], the system named is diabetic hyperlipidemic mice. The settings on record: cited from earlier work.
Data set [3] has as its system diabetic rats. The settings on record: cited from earlier work.
The subject of data set [4] is hypertensive subjects. As to conditions: 93 hypertensive subjects age greater than 50 years, compared with placebo; cited from earlier work.
The conditions of data set [5]: cited from earlier work.
The target in data set [6] is SOD-1 Cys111 (Homo sapiens, UniProt P00441). Briefly: Intersubunit crosslinking of SOD-1. As to conditions: FIG. 16. The class given is biochemical.
The subject of data set [7] is AGE formation. As to conditions: in vitro; cited from earlier work.
The conditions of data set [8]: humans; cited from earlier work.
Data set [9] deals with mice. As to conditions: cited from earlier work.
Data set [10] has as its system proteasome. Briefly: Proteasome activity in SOD-1-expressing stably transfected NIH/3T3 cell lines. It counts as cell-based. As to conditions: NIH/3T3 cell lines expressing the SOD-1 variant. The text has this: Therefore, one aspect of the invention relates to monitoring proteasome activity to screen for potential ALS therapeutic compounds. FIG. 2 illustrates the results of using SOD-1 expressing cells (eG93A SOD-1 expressing clones; wild-type SOD-1 expressing clones; and […] G93A SOD-1 expressing clones) for said purpose. In certain embodiments, the assay involves administration of different concentrations of a given compound to G93A- and wild-type SOD-1 cell lines, and assaying proteasome activity. Successful compounds, in analogy to […]/G93A double mutant (FIG. 2), will relieve G93A SOD-1 associated proteasome inhibition. […] With successful hits, SOD-1 protein can be immunopurified from cell cultures to determine if there is any direct chemical bonding to SOD-1. pcDNA-3 vector with wild-type SOD-1, G93A SOD-1, […] SOD-1, […] G93A SOD-1 cDNA sequence were prepared by standard site-directed mutagenesis techniques. NIH/3T3 cells were maintained in Dulbecco's modified Eagle's medium (ATCC, Mannassas, Va.) supplemented with 10% newborn calf serum (Invitrogen, Carlsbad, Calif.). Cells were transfected with the plasmids using Lipofectamine 2000 (Invitrogen, Carlsbad, Calif.). A mock transfection was performed and cells were transfected under the same conditions but using either empty pcDNA-3 expression vector or no vector (to test the efficiency of selection). […]

The subject of data set [11] is cultured motor neurons. Briefly: Viability of motor neurons microinjected with plasmid encoding SOD-1 variants. It counts as cell-based, mouse. The settings on record: motor neurons expressing the SOD-1 variant, 10 days of observation, linear curve fit. An excerpt: (§1) Dissociation of spinal cord-dorsal root ganglia from embryonic day 13 CD 1 mice (Charles River Laboratories, Wilmington, Mass.), plating on poly-D-lysine-coated coverslips, culture media, and identification of motor neurons were as previously described. Roy, J., Minotti, S., Dong, L., Figlewicz, D. A., and Durham, H. D. (1998) J. Neurosci. 18, 9673-9684. Cultures were used 3-6 weeks after plating.
(§2) Subcloning of SOD-1G93A and SOD-1 wt cDNAs into the BamHI/HindIII sites of pcDNA3 (Invitrogen) was performed previously using cDNAs provided by Dr. Denise Figlewicz (University of Michigan, Ann Arbor, Mich.). Wang, J., Xu, G., and Borchelt, D. R. (2002) Neurobiol. Dis. 9, 139-148. Trp 4 Phe (W32F) mutations were created by site-specific mutagenesis of SOD-1 G93A and SOD-1 wt (TOP Gene Technologies, Quebec, Canada), producing SOD-1 W32F/G93A and SOD-1 W32F mutants, respectively. Intranuclear microinjection of plasmids was used to express SOD-1 constructs in motor neurons and to assess their effects on the survival and formation of inclusions as previously described Durham, H. D., Roy, J., Dong, L., and Figlewicz, D. A. (1997) J. Neuropathol. Exp. Neurol. 56, 523-530.
For viability experiments, motor neurons containing the co-injected fluorescent marker were counted daily under epifluorescence microscopy beginning 24 h post-microinjection. The number of motor neurons was expressed as a percentage of those present at 24 h to exclude those dying from injury during microinjection. The morphology of each cell was also evaluated by phase microscopy. All experiments involved a minimum of six cultures per condition with 20-80 motor neurons (average of 40) analyzed per culture. All experimental groups were analyzed simultaneously using cultures from the same batch, but each set of conditions was assessed for reproducibility in more than one culture batch. For viability experiments, injectates were coded by an independent researcher, and cell counts for viability were carried out blind to the identity of the experimental condition. Rates of cell death were calculated by a linear curve fit of the data (see FIG. 11) and are expressed as the percentage of death/day. The lowest observed linear regression r2 value was 0.94, and the average value was 0.96.
For the survival assays, statistical significance was determined using analysis of variance between groups (SigmaStat, Systat Software, Inc., Point Richmond, Calif.). Significance was established at p less than or equal to 0.05. Data for percentage of motor neurons with inclusions were tested for normal distribution and then compared using a one-tailed, two-sample t test for equal means under the assumption of unequal variance. A null hypothesis of equal means was rejected when p is less than or equal to 0.05.

The test system of data set [12] is cultured motor neurons. Briefly: SOD-1-positive cytoplasmic inclusions in microinjected motor neurons. It counts as cell-based, mouse.
From the text: as §1
as §2, with “523-530. […]” for “523-530.”
For the survival assays, statistical significance was determined using analysis of variance between groups (SigmaStat, Systat Software, Inc., Point Richmond, Calif.). […]

Setting [13] is: 12 weeks therapy, diabetic hypertensive rats.

Sequence of SOD-1 Cys111 (P00441 2-154 limits assumed): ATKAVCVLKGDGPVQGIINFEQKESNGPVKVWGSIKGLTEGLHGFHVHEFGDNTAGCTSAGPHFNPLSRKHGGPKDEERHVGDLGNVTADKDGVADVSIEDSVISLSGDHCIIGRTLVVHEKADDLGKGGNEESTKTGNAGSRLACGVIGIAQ

For `Cc1sc[n+](CC(=O)c2ccccc2)c1C.[Cl-]` [ALT-711, alagebrium chloride], the “left ventricular mass, left ventricular filling, patient ratings of quality of life” value in data set [1] is “decreased left ventricular mass, improved left ventricular filling, and improved patient ratings of quality of life”. For the same compound, in data set [2], the “atherosclerosis, cholesterol and systolic blood pressure” value was “attenuated atherosclerosis and decreased cholesterol and systolic blood pressure”. Besides, the “levels of AGEs, RAGE expression, diabetic nephropathy, myocardial stiffness” value in [3] (diabetic rats) is on record as “decrease”. Also, the “pulse pressure and arterial stiffness” value in [4] is “significant reduction”.

As to `CC(=O)NCCNC(=N)NN.Cl` [ALT-946, N-(2-acetamidoethyl)hydrazinecarboximidamide hydrochloride], in data set [3] (setting [13]), the “decrease of albuminuria compared with aminoguanidine therapy” value was 250% and the “renal AGEs by histologic analysis” value was “reduce renal AGEs”. For the same compound, the albuminuria entry in data set [3] (rat model, used at the onset of diabetes and initiated after 16 weeks of diabetes) is recorded as “reduced albuminuria”.

For `N=C(N)NN` [Aminoguanidine], the incidence of glomerulonephritis result in [5] (higher dose) is on record as “increased incidence”. Besides, the proteinuria entry in data set [5] (lower dose, P<0.001) was “equally effective”. Further, in data set [5] (lower dose, P=0.03), the retinopathy progression result is listed as “preventing retinopathy progression”. Besides, the serious side effects entry in [5] (lower dose) is recorded as “free of serious side effects”. Besides, the “nephropathy, retinopathy, and vessel elasticity” value in [3] (diabetic rats) is “improve”.

For `O=C1C=CC(=O)N1CCSSCCN1C(=O)C=CC1=O` [DTME], in data set [6], the “intersubunit crosslinking of SOD-1 Cys111” value is given as “intersubunit crosslinking”.

As for `C=CS(=O)(=O)CCCCCCS(=O)(=O)C=C` [HBVS], in [6], the “intersubunit crosslinking of SOD-1 Cys111” value is recorded as “intersubunit crosslinking”.

Turning to `CN(C)C(=N)N=C(N)N` [Metformin], the AGE formation result in data set [7] was “prevent AGE formation”.

For the compound `O=C(C[n+]1ccsc1)c1ccccc1.[Br-]` [N-phenacylthiazolium bromide], in [3] (diabetic rat models), the AGEs result was “decrease AGEs” and the “nephropathy as measured by proteinuria” value is recorded as “has not decreased nephropathy”.

Take `Cc1ncc(CO)c(CN)c1O` [Pyridoxamine]: in [3] (compared with aminoguanidine), the cholesterol levels entry is reported as “lowered cholesterol levels more than aminoguanidine” and the diabetic nephropathy entry was “inhibited diabetic nephropathy equally to aminoguanidine”. In [3] (nondiabetic and diabetic rats), the AGE formation entry is reported as “retarded AGE formation” and the weight entry is reported as “mild weight loss”.

With `CCCCC1=NC2(CCCC2)C(=O)N1Cc1ccc(-c2ccccc2-c2nnn[nH]2)cc1` [irbesartan], in data set [8], the vascular inflammation result is “decreased vascular inflammation”. Moreover, in [7], the AGE formation entry is “effective in vitro at decreasing AGE formation”.

As for `CCCCc1nc(Cl)c(CO)n1Cc1ccc(-c2ccccc2-c2nn[nH]n2)cc1` [losartan], the AGE formation entry in data set [7] is “effective in vitro at decreasing AGE formation”.

Take `CCC[C@H](N[C@@H](C)C(=O)N1[C@H](C(=O)O)C[C@@H]2CCCC[C@@H]21)C(=O)OCC` [perindopril]: in [9], the atherosclerosis entry was “inhibited atherosclerosis”. Besides, the RAGE levels entry in data set [8] was “decreased RAGE levels”.

`CCCc1nc2c(C)cc(-c3nc4ccccc4n3C)cc2n1Cc1ccc(-c2ccccc2C(=O)O)cc1` [telmisartan]: the AGE formation result in data set [7] is on record as “effective in vitro at decreasing AGE formation”.

For the compound `O=C(O)CN1C[C@@H](c2cccs2)SC[C@H](N[C@@H](CCc2ccccc2)C(=O)O)C1=O` [temocaprilat], the AGE formation result in [7] is given as “effective in vitro at decreasing AGE formation”.

For the compound `CCCCC(=O)N(Cc1ccc(-c2ccccc2-c2nnn[nH]2)cc1)[C@H](C(=O)O)C(C)C` [valsartan], the AGE formation result in data set [7] is “effective in vitro at decreasing AGE formation”.

Regarding “SOD-1^G93A: disease-causing mutant copper/zinc superoxide dismutase with the G93A mutation”, in [10], the proteasome activity entry is “near complete inhibition”. Moreover, the “rate of death of motor neurons” value in [11] is recorded as 6.8 %/day.

“SOD-1^W32F/G93A: SOD-1 with the double mutation W32F and G93A”: the “rate of death of motor neurons” value in [11] is on record as 3.6 %/day. Moreover, the “percentage of motor neurons with SOD-1 inclusions” value in data set [12] (days 5 and 7, versus SOD-1G93A) is listed as “No significant difference”; in data set [12] (post-microinjection day 3, versus SOD-1G93A, p<0.005), “significantly lower proportion”.

As to “SOD-1^W32F: SOD-1wt with Trp-32 replaced with Phe”, the “rate of death of motor neurons” value in data set [11] is given as 4.3 %/day.

Consider “SOD-1^wt: wild-type human copper/zinc superoxide dismutase”, for which, in data set [11], the “rate of death of motor neurons” value was found to be 3.0 %/day.
